Data taken from paper PMC8922279, “Identification of β-Lactams Active against Mycobacterium tuberculosis by a Consortium of Pharmaceutical Companies and Academic Institutions” (ACS Infectious Diseases, 2022).
Where two headings read alike, the source gives them in different places.

Assays:
HepG2 cells = experiment: Cytotoxicity against HepG2 cells (CellTiter-Glo); type: cell-based, human; conditions: Table S4
Procedure: Compounds were tested for cytotoxicity against HepG2 cells as previously described.[48],[69],[70] Briefly, cells were exposed to compounds for 48–72 h, and viability was measured using CellTiter-Glo (Promega).

physchem [1] = conditions: simulated gi fluid, pH 1.2
Mtb H37Rv [2] = experiment: MIC90 against replicating (R) Mtb H37Rv, with or without clavulanate; type: cell-based, Mycobacterium tuberculosis; conditions: Table S4
in vitro [3] = conditions: cynomolgus monkey, plasma, pH 7.4
S. aureus = experiment: Microbial spectrum, S. aureus; type: cell-based, Staphylococcus aureus; conditions: clavulanate 4 μg/mL; Table S4
in vitro [4] = conditions: beagle, dog, plasma
Mtb H37Rv [5] = experiment: MIC90 against nonreplicating (NR, 4-stress) Mtb H37Rv, with or without clavulanate; type: cell-based, Mycobacterium tuberculosis; conditions: 4-stress nonreplicating, Table S4
in vitro [6] = conditions: human, plasma, Plasma stability % Remaining
[7] = female, 129sv DHP-1 knockout, mouse, in vivo
in vitro [8] = conditions: SD, rat, plasma, Plasma stability % Remaining
physchem [9] = conditions: simulated gi fluid, pH 6.5, FaSSIF Stability, % remaining
in vitro [10] = conditions: monkey, plasma
in vivo [11] = conditions: female, CD-1, mouse
in vitro [12] = conditions: human, plasma, pH 7.4, % bound to plasma
P. aeruginosa = experiment: Microbial spectrum, P. aeruginosa; type: cell-based, Pseudomonas aeruginosa; conditions: clavulanate 4 μg/mL; Table S4
in vivo [13] = conditions: DHP-1 knockout, mouse, sc, 50 mg/kg
in vitro [14] = conditions: human
in vitro [15] = conditions: male, CD-1, mouse, plasma, Plasma stability % Remaining
Caco-2 cells [16] = system: Caco-2 cells
in vivo [17] = conditions: female, 129sv DHP-1 knockout, mouse, sc
in vitro [18] = conditions: beagle, dog, plasma, pH 7.4
C. albicans = experiment: Microbial spectrum, C. albicans; type: cell-based, Candida albicans; conditions: no clavulanate; Table S4
in vitro [19] = conditions: CD-1, mouse, plasma, pH 7.4, % bound to plasma
wild-type Mtb H37Rv = type: in vivo, 129sv DHP-1 knockout mice; conditions: for Log10 CFU per mouse (lungs), Mean: days 9-15, lungs day 16, untreated day 16 mean 9.1
[20] = 50 mg/kg sc, uninfected DHP-1 mice
in vitro [21] = conditions: SD, rat, plasma, pH 7.4, % bound to plasma
E. coli = experiment: Microbial spectrum, E. coli; type: cell-based, Escherichia coli; conditions: clavulanate 4 μg/mL; Table S4
[22] = In vitro plasma stability, cynomolgus monkey plasma; conditions: monkey, plasma
[23] = In vitro plasma stability, beagle dog plasma; conditions: beagle, dog, plasma
[24] = In vitro plasma stability, SD rat plasma; conditions: SD, rat, plasma, Plasma stability % Remaining, 37 °C, time point 120 min
[25] = Stability in fasted simulated intestinal fluid (FaSSIF); conditions: fasted simulated intestinal fluid (FaSSIF), pH 6.5, FaSSIF Stability, % remaining, pH 6.5, room temperature
Mtb ΔpanCDΔlysA = type: cell-based, Mycobacterium tuberculosis; conditions: MIC90 in presence vs absence of 4 μg/mL clavulanate, replicating Mtb
[26] = Stability in simulated gastric fluid (SGF); conditions: simulated gastric fluid (SGF), pH 1.2
Caco-2 cells [27] = experiment: Caco-2 permeability / efflux transporter substrate; conditions: Caco-2
[28] = Caco-2 permeability / efflux transporter substrate; conditions: human
[29] = In vitro plasma stability, human plasma; conditions: human, plasma, Plasma stability % Remaining, 37 °C, time point 120 min
[30] = In vitro plasma stability, CD-1 mouse plasma; conditions: male, CD-1, mouse, plasma, Plasma stability % Remaining, Mouse, 37 °C, time point 120 min
[31] = Caco-2, pH 7.4, Caco-2 Mean Recovery % A to B
[32] = Caco-2, pH 7.4, Caco-2 Mean Recovery % B to A
[33] = 50 mg/kg sc bid + clavulanate 100 mg/kg po bid

O=C(O)C1=C(CSc2cccc[n+]2[O-])CS[C@@H]2[C@H](NC(=O)/C(=N\Oc3ccccc3)c3ccco3)C(=O)N12 [TBBL-0000005]
HepG2 LD50 (HepG2 cells): 88.7 µM
remaining at 1 h, 10 μM (physchem [1]): 120%
remaining at 24 h, 10 μM (physchem [1]): 76.6%
Mtb H37Rv R + CLAV (MIC90) (Mtb H37Rv [2]; clavulanate 4 μg/mL): 2.7 µM
Mtb H37Rv R (MIC90) (Mtb H37Rv [2]; no clavulanate): 2.9 µM
fraction unbound at 4 h, 2 μM (in vitro [3]): 0.06
S.aureus R + CLAV (MIC90) (S. aureus): 0.8 µM
remaining at 2 h, 2 μM (in vitro [4]): 51.3%
Mtb H37Rv NR + CLAV (MIC90) (Mtb H37Rv [5]; clavulanate 4 μg/mL): 1.5 µM
Mtb H37Rv NR (MIC90) (Mtb H37Rv [5]; no clavulanate): 1.8 µM
remaining at 2 h, 2 μM (in vitro [6]): 73.7%
Tlast [7]: 6.0 h
remaining at 2 h, 2 μM (in vitro [8]): 35.2%
remaining at 6 h, 10 μM (physchem [9]; 6h): 98.7%
remaining at 24 h, 10 μM (physchem [9]; 24h): 98.5%
remaining at 2 h, 2 μM (in vitro [10]): 108%
AUC(0-t) (in vivo [11]; iv, 5 mg/kg): 3.33 µg·h/mL
Vd (in vivo [11]; iv, 5 mg/kg): 0.23 L/kg
clearance (in vivo [11]; iv, 5 mg/kg): 0.3 L/h/kg
half-life (in vivo [11]; iv, 5 mg/kg): 32.4 min
k el (in vivo [11]; iv, 5 mg/kg): 0.000356 s⁻¹
AUC(0-t) (in vivo [11]; po, 25 mg/kg): 0.097 µg·h/mL
bioavailability (in vivo [11]; po, 25 mg/kg): 0.11%
fraction unbound at 4 h, 2 μM (in vitro [12]): 0.129
P.aeruginosa R + CLAV (MIC90) (P. aeruginosa): > 100 µM
AUC(0-t) (in vivo [13]): 18.2 ± 7.18 µg·h/mL
Cmax (in vivo [13]): 26.6 ± 10 µg/mL
Tmax (in vivo [13]): 15 to 30 min
Papp A→B at 120 min, 3 μM (in vitro [14]; Caco-2, pH 7.4): < 3.3 nm/s
Papp B→A at 120 min, 3 μM (in vitro [14]; Caco-2, pH 7.4): < 2.8 nm/s
recovery at 120 min, 3 μM (in vitro [14]; [31]): < 88.9%
recovery at 120 min, 3 μM (in vitro [14]; [32]): < 89.8%
remaining at 2 h, 2 μM (in vitro [15]): 60.6%
Caco-2 Rank Papp (Caco-2 cells [16]): Low
AUC(0-t) (in vivo [17]; 50 mg/kg): 7.92 µg·h/mL
Cmax (in vivo [17]; 50 mg/kg): 4.13 µg/mL
Tmax (in vivo [17]; 50 mg/kg): 30 min
fraction unbound at 4 h, 2 μM (in vitro [18]): 0.186
C.albicans R (MIC90) (C. albicans): > 100 µM
fraction unbound at 4 h, 2 μM (in vitro [19]): 0.06
Log10 CFU per mouse (lungs), Mean (wild-type Mtb H37Rv; [33]): 8.9 Log10 CFU
Comments (tolerability) [20]: No side effects
Tlast [20]: 2.0 to 4.0 h
fraction unbound at 4 h, 2 μM (in vitro [21]): 0.121
E.coli R + CLAV (MIC90) (E. coli): > 100 µM

C[C@@H](O)[C@H]1C(=O)N2C(C(=O)O)=C(S[C@@H]3CN[C@H](C(=O)N(C)C)C3)[C@H](C)[C@H]12 [Meropenem, reference compound]
remaining at 2 h, 2 μM [22]: 99.9%
remaining at 2 h, 2 μM [23]: 75.2%
Tlast [7]: 1.0 h
remaining at 2 h, 2 μM [24]: 57.7%
remaining at 6 h, 10 μM ([25]; 6h): 94.1%
remaining at 24 h, 10 μM ([25]; 24h): 76.8%
AUC(0-t) (in vivo [17]; 50 mg/kg): 0.387 µg·h/mL
Cmax (in vivo [17]; 50 mg/kg): 0.724 µg/mL
Tmax (in vivo [17]; 50 mg/kg): 30 min
AUC(0-t) (in vivo [17]; 300 mg/kg): 2 µg·h/mL
Cmax (in vivo [17]; 300 mg/kg): 3.34 µg/mL
Tmax (in vivo [17]; 300 mg/kg): 30 min
clavulanate shift of MIC90 (Mtb ΔpanCDΔlysA): ~8 fold
remaining at 1 h, 10 μM [26]: 111%
remaining at 24 h, 10 μM [26]: 100%
Caco-2 Rank Papp (Caco-2 cells [27]): Low
Papp A→B at 120 min, 3 μM ([28]; Caco-2, pH 7.4): < 2.6 nm/s
Papp B→A at 120 min, 3 μM ([28]; Caco-2, pH 7.4): < 2.4 nm/s
recovery at 120 min, 3 μM [28, 31]: < 91%
recovery at 120 min, 3 μM [28, 32]: < 94.2%
Log10 CFU per mouse (lungs), Mean (wild-type Mtb H37Rv; [33]): 7.6 Log10 CFU
Log10 CFU per mouse (lungs), Mean (wild-type Mtb H37Rv; 300 mg/kg sc bid + clavulanate 100 mg/kg po bid): 7.1 Log10 CFU
effect on lung CFU (in words) (wild-type Mtb H37Rv; mouse, in vivo): bacteriostatic impact
remaining at 2 h, 2 μM [29]: 70.6%
remaining at 2 h, 2 μM [30]: 74.7%
